Measurements taken from patent US9421237B2, “Tripeptide boronic acid or boronic ester, preparative method and use thereof” (PEKING UNIVERSITY, priority 2009, dated 2016).

Assays:
[1] = target: T1, 20S proteasome extracted from rat liver, chymotryptic-like (CT-L) activity (Rattus norvegicus, UniProt P18421+P28075); assay: Proteasome inhibition, chymotryptic-like (CT-L) activity, fluorescent peptide Suc-leu-leu-Val-Tyr-AMC; format: biochemical; details: rat liver 20S proteasome, 37° C., 1 h
T1 construct: 20S proteasome extracted from rat liver; from tissue; host or cells: rat liver
Experimental: (§1) The activities of the proteasome were assayed using fluorescent peptides: Suc-leu-leu-Val-Tyr-AMC (Suc represents succinyl, and AMC represents 7-amino-4-methylcoumarin, purchased from SIGMA) for determining chymotryptic-like (CT-L) activity; Z-Ala-Arg-Arg-AMC (Z represents benzyloxycarbonyl, purchased from Calbiochem) for determining trypsin-like (TL) activity; and Z-leu-leu-Glu-βNA (βNA represents β-naphtylamide, purchased from SIGMA) for determining peptidyl-glutamyl-peptide-hydrolyzing (PGPH) enzyme activity.
(§2) Method for the aforesaid activity assays is as follows: 1 μg of 20S proteasome extracted from rat liver was incubated with a 100 μL solution containing various concentrations of compounds, 50 μM fluorescent peptides and 20 mM Tris-HCl at 37° C. for 1 h, respectively. The fluorescence released from AMC and RNA reagents was measured by a spectrofluorimeter Fluostar OPTIMA and BMG Germany at excitation/emission wavelengths of 380/440 nm and 335/410 nm, respectively. 0.1% DMSO was used as a solvent control. Compared with the fluorescence of solvent control, an inhibition rate was calculated.

[2] = target: T2, 20S proteasome extracted from rat liver, peptidyl-glutamyl-peptide-hydrolyzing (PGPH) enzyme activity (Rattus norvegicus, UniProt P28073+Q9JHW0); assay: Proteasome inhibition, PGPH activity, fluorescent peptide Z-leu-leu-Glu-βNA; format: biochemical; details: rat liver 20S proteasome, 37° C., 1 h
T2 construct: 20S proteasome extracted from rat liver; from tissue; host or cells: rat liver
Experimental: as §1
as §2, with “calculated. Said assays used anticancer drug bortezomib (leukemia drug), namely PS341 as compound for positive control.” for “calculated.”

[3] = target: T3, 20S proteasome extracted from rat liver, trypsin-like (TL) activity (Rattus norvegicus, UniProt P40112+Q9JHW0); assay: Proteasome inhibition, trypsin-like (TL) activity, fluorescent peptide Z-Ala-Arg-Arg-AMC; format: biochemical; details: rat liver 20S proteasome, 37° C., 1 h; read-out: T-L (IC50)
T3 construct: 20S proteasome extracted from rat liver; from tissue; host or cells: rat liver
Experimental: as §1
as §2, with “calculated. Said assays used anticancer drug bortezomib (leukemia drug), namely PS341 as compound for positive control.” for “calculated.”

[4] = system: Bel-7402 human hepatocarcinoma cell; assay: Preliminary anti-tumor screening in vitro, SRB method; format: cell-based; set-up: key to Test results: +++: inhibition rates at three doses are greater than 50%; ++: inhibition rates at two doses are greater than 50%; +: inhibition rate at one dose is greater than 50%; details: Bel-7402, SRB; for Test results: number of doses with inhibition > 50%; for inhibition at 0.05 µM / inhibition at 0.5 µM / inhibition at 5 µM: Homo sapiens, read-out: Inhibition rate %
Experimental: (§3) The test methods used in this test example is the routine method for anti-tumor activities test in pharmaceutical area, for example, referring to the following reference: (J. Immunol Method, 1983, 65, 55).
(§4) Test models: A: MTT method (HL-60 human leukemia); B: SRB method (BGC-823 human gastric cancer); C: SRB method (Bel-7402 human hepatocarcinoma); D: SRB method (KB human nasopharyngeal carcinoma).
(§5) The aforesaid tests were carried out with the compounds of Examples 1-26 in the present invention, test results are shown in Tables 2-5.

[5] = system: KB human nasopharyngeal carcinoma cell; assay: as above; format: cell-based; set-up: key to Test results: +++: inhibition rates at three doses are greater than 50%; ++: inhibition rates at two doses are greater than 50%; +: inhibition rate at one dose is greater than 50%; details: for inhibition at 0.05 µM / inhibition at 0.5 µM / inhibition at 5 µM: Homo sapiens, read-out: Inhibition rate %; for Test results: number of doses with inhibition > 50%
Experimental: as §3, §4, §5

[6] = system: BGC-823 human gastric cancer cell; assay: as above; format: cell-based; set-up: key to Test results: +++: inhibition rates at three doses are greater than 50%; ++: inhibition rates at two doses are greater than 50%; +: inhibition rate at one dose is greater than 50%; details: BGC-823, SRB; for Test results: number of doses with inhibition > 50%; for inhibition at 0.05 µM / inhibition at 0.5 µM / inhibition at 5 µM: Homo sapiens, read-out: Inhibition rate %
Experimental: as §3, §4, §5

[7] = system: HL-60 human leukemia cell; assay: Preliminary anti-tumor screening in vitro, MTT method; format: cell-based; set-up: key to Test results: +++: inhibition rates at three doses are greater than 50%; ++: inhibition rates at two doses are greater than 50%; +: inhibition rate at one dose is greater than 50%; details: HL-60, MTT; for Test results: number of doses with inhibition > 50%; for inhibition at 0.05 µM / inhibition at 0.5 µM / inhibition at 5 µM: Homo sapiens, read-out: Inhibition rate %
Experimental: as §3, §4, §5

Row | SMILES | IC50 [1] | IC50 [2] | IC50 [3] | melting point | Test results [4] | inhibition at 0.05 µM [4] | inhibition at 0.5 µM [4] | inhibition at 5 µM [4] | inhibition at 0.05 µM [5] | inhibition at 0.5 µM [5] | inhibition at 5 µM [5] | Test results [5] | Test results [6] | inhibition at 0.05 µM [6] | inhibition at 0.5 µM [6] | inhibition at 5 µM [6] | Test results [7] | inhibition at 0.05 µM [7] | inhibition at 0.5 µM [7] | inhibition at 5 µM [7]
1 | CC(C)C[C@H](NC(=O)[C@H](Cc1ccccc1)NC(=O)[C@H](Cc1ccccc1)NC(=O)c1cnccn1)B1OC2CC3C[C@@H](C3(C)C)[C@]2(C)O1 (stereo partly drawn) [Compound 5a, Pinanediol N-pyrazineformyl-L-phenylalanyl-L-phenylalanyl-L-leucine Borate] | 0.402 ± 0.024 nM | 8.33 ± 2.49 nM | > 20 nM | 78 to 80 °C | – | – | – | – | – | – | – | – | – | – | – | – | – | – | – | –
2 | CC(C)C[C@H](NC(=O)[C@H](Cc1ccccc1)NC(=O)[C@H](CC(C)C)NC(=O)c1cnccn1)B1OC2CC3C[C@@H](C3(C)C)[C@]2(C)O1 (stereo partly drawn) [Compound 5e, Pinanediol N-pyrazineformyl-L-leucyl-L-phenylalanyl-L-leucine Borate] | 0.431 ± 0.086 nM | 3.405 ± 0.021 nM | > 20 nM | 63 to 65 °C | – | – | – | – | – | – | – | – | – | – | – | – | – | – | – | –
3 | CC(C)C[C@H](NC(=O)[C@H](Cc1ccc2ccccc2c1)NC(=O)[C@H](Cc1ccccc1)NC(=O)c1cnccn1)B1OC2CC3C[C@@H](C3(C)C)[C@]2(C)O1 (stereo partly drawn) [Compound 5g, Pinanediol N-pyrazineformyl-L-phenylalanyl-L-naphthylalanyl-L-leucine Borate] | 0.443 ± 0.081 nM | – | > 20 nM | 97 to 98 °C | ++ | 46.7% | 77.7% | 94.7% | 62.8% | 95.5% | 96.5% | +++ | +++ | 77.6% | 95.4% | 95.9% | ++ | -5.06% | 87.5% | 88.3%
4 | CC(C)C[C@H](NC(=O)[C@H](Cc1ccc2ccccc2c1)NC(=O)[C@H](Cc1ccc2ccccc2c1)NC(=O)c1cnccn1)B1OC2CC3C[C@@H](C3(C)C)[C@]2(C)O1 (stereo partly drawn) [Compound 5h, Pinanediol N-pyrazineformyl-L-naphthylalanyl-L-naphthylalanyl-L-leucine Borate] | 0.495 ± 0.092 nM | – | > 20 nM | 136 to 137 °C | ++ | 13.1% | 51.7% | 91% | 20.8% | 91.2% | 94.6% | ++ | +++ | 55% | 89% | 95.4% | ++ | 11.4% | 85.5% | 88.3%
5 | CC(C)C[C@H](NC(=O)[C@H](CC1=CNC2C=CC=CC12)NC(=O)[C@H](Cc1ccccc1)NC(=O)c1cnccn1)B1OC2CC3C[C@@H](C3(C)C)[C@]2(C)O1 (some centres unmarked) [Compound 5j] | > 20 nM | > 20 nM | > 20 nM | – | – | – | – | – | – | – | – | – | – | – | – | – | – | – | – | –
6 | CC(C)C[C@H](NC(=O)[C@H](CC(C)C)NC(=O)[C@H](Cc1ccccc1)NC(=O)c1cnccn1)B1OC2CC3C[C@@H](C3(C)C)[C@]2(C)O1 (stereo partly drawn) [Compound 5k, Pinanediol N-pyrazineformyl-L-phenylalanyl-L-leucyl-L-leucine Borate] | 0.287 ± 0.019 nM | 2.73 ± 1.04 nM | > 20 nM | 68 to 70 °C | – | – | – | – | – | – | – | – | – | – | – | – | – | – | – | –
